# Laboratory results published in patent US20030229132A1, “Small molecule modulators of apoptosis” (priority 2002, published 2003).
# What was measured:
# [1] = system: Jurkat cells transfected with Apaf-1 siRNA; test: Viability of Jurkat cells transfected with Apaf-1 siRNA (MTT test); type: cell-based, human; conditions: 20 nM Apaf-1 siRNA 48 hr, then 24 hr incubation
# Method: (§1) (A) Jurkat cells were transfected with 20 nM Apaf-1 siRNA for 48 hr and half the cells were lysed and probed with antibodies to Apaf-1, caspase-9, and caspase-3. The other half of the cells was incubated with varying concentrations of (B), compound 2 or (C), Fas ligand for 24 hr and assayed for viability by MTT test. (D) SK-OV-3 cells were transiently transfected with Apaf-1 or vector control for 24 hr and then incubated with vary concentrations of compound 2 and assayed for viability. (E) Cyto c was titrated into SK-OV-3 cell lysate in the presence of 300 μM dATP, with or without 150 nM purified Apaf-1 and 20 μM compound 2 as indicated.
# In order to verify that compound 2 targets the apoptosome as a function of its cytotoxic activity, small interfering RNA (siRNA) was used to silence the expression of Apaf-1 in Jurkat cells. Sense and anti-sense oligonucleotides corresponding to nucleotides 978-998 of Apaf-1 (([…]) as reported by Lassus et al. Science 297, 1352-4. (2002)), were purchased from Dharmacon. Transfection of siRNA into Jurkat cells was accomplished using GeneSilencer (Gene Therapy Systems) according to manufacturer's instructions. There was a significant decrease in the level of expression of Apaf-1 48 hr after transfection of an Apaf-1 specific siRNA, without affecting the expression of caspases in the pathway (FIG. 5A).
# Molt-4 = test: Cell viability, Molt-4; type: cell-based, human; conditions: Molt-4, leukemia
# Description: (§2) Samples were then probed by immunoblot for (A) caspase-3 activation or (B) cleavage of PARP. (C) DNA fragmentation analysis. […] The DNA was isolated by phenol/chloroform extraction, separated on a 2% agarose gel and visualized by ethidium bromide staining. Cell viability assay.
# (§3) Normal cell lines include peripheral blood lymphocytes (PBL) isolated from donated human blood, non-transformed mammary fibroblasts (MCF-10A), human mammary epithelial cells (HMEC), human umbilical vein endothelial cells (HUVEC), and human prostate epithelial cells (PREC). Transformed cell lines include cell lines from leukemia, breast, lung, ovarian, and epidermal cancers (Table 1).
# [2] = system: peripheral blood lymphocytes (PBL); test: Cell viability, PBL; type: cell-based, human; conditions: normal cell
# Description: as §2, §3
# [3] = system: Apaf-1 transfected SK-OV-3 cells; test: Viability of SK-OV-3 cells transiently transfected with Apaf-1; type: cell-based; conditions: several independent experiments
# Method: as §1
# If silencing Apaf-1 in Jurkat cells make them resistant to compound 2 induced apoptosis, then it would be expected that ectopic expression of wildtype Apaf-1 in an Apaf-1 deficient cell line should render cells sensitive to compound 2. As mentioned above, the ovarian cancer cell line SK-OV-3 is deficient in Apaf-1 activity and is resistant to compound 2. Apaf-i was cloned into pcDNA-3 and transiently transfected into SK-OV-3 cells using Fugene (Roche) according to the manufacturer's instructions. Transient transfection of Apaf-1 into SK-OV-3 cells rendered them sensitive to compound 2 cytotoxicity as compared to the vector control (FIG. 5D). […]
structure (smiles),measurement,setting,value
O=C1C(=O)N(Cc2ccc(Cl)c(Cl)c2)c2ccccc21 [Compound 2],cell killing after silencing of Apaf-1,[1],resistance
same,IC50,Molt-4,6 µM
same,IC50,[2],50 µM
same,viability of cells exposed to compound (plateau),[3],40-50%
